Experimental data taken from ChEMBL document CHEMBL1201862, “PubChem BioAssay data set” (2004).
Activity calls are given as the source filed them.

Key:
H9c2 = test: cells; assay type: functional, cell-based; conditions: Rattus norvegicus, H9c2, Myocardium;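 note: confirmatory concentration-response retest of ultra-high-throughput screening hits for modulation of myocardial damage; cell death induced by hydrogen peroxide oxidative stress; compound pretreatment for 60 min then peroxide exposure for 2 h; potency is for protecting the cells against peroxide damage rather than for killing them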
Trypsin = Trypsin (Sus scrofa, UniProt P00761); test: porcine trypsin inhibitors, dose response, selectivity assay for Rce1 protease inhibitor project, biochemical, quenched peptide fluorescence, cherry-pick (AID 488789)
CAAX prenyl protease 2 = target: T1, CAAX prenyl protease 2 (Saccharomyces cerevisiae S288c, UniProt Q03530); assay type: biochemical
T1 sequence (Q03530 whole entry): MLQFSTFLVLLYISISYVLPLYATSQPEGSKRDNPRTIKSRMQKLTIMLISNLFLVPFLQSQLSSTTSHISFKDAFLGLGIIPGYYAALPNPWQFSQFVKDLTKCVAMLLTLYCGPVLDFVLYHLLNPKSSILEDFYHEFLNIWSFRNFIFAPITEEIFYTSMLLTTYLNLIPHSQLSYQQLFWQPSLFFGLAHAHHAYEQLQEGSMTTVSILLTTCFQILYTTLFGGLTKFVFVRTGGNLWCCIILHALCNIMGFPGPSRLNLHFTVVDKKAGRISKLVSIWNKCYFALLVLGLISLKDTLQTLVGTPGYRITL

[1] = target: T2, Voltage-gated N-type calcium channel alpha-1B subunit/Amyloid beta A4 precursor protein-binding family A member 1 (Homo sapiens, UniProt Q00975+Q02410); assay type: protein assay
[2] = Luminescence Cell-Based Dose Response HTS to Identify Activators of Luciferase Translation or Activity in H4 […] Cells. [Related pubchem assays: 1829 (Project Summary), 1814 (Primary HTS)]; assay type: functional
[3] = target: T2, Voltage-gated N-type calcium channel alpha-1B subunit/Amyloid beta A4 precursor protein-binding family A member 1; assay type: protein assay; remark: listed apart in the source
[4] = Luminescence Cell-Based Dose Confirmation HTS to Identify Activators of 5'UTR Stem-Loop Driven Alpha-Synuclein mRNA Translation in H4 Neuroglioblastoma Cells. [Related pubchem assays: 1829 (Project Summary), 1814 (Primary HTS)]; assay type: functional
H4 = test: Luminescence Cell-Based Dose Response HTS to Identify Activators of 5'UTR Stem-Loop Driven Prion Protein mRNA Translation in H4 Neuroglioblastoma Cells. [Related pubchem assays: 1829 (Project Summary), 1814 (Primary HTS)]; assay type: functional; conditions: Homo sapiens
[5] = target: T3, Nucleotide-binding oligomerization domain-containing protein 1 (Homo sapiens, UniProt Q9Y239); test: NOD1 signaling inhibitors, SAR follow-up, revised (AID 2333); assay type: functional
T3 sequence (Q9Y239 whole entry): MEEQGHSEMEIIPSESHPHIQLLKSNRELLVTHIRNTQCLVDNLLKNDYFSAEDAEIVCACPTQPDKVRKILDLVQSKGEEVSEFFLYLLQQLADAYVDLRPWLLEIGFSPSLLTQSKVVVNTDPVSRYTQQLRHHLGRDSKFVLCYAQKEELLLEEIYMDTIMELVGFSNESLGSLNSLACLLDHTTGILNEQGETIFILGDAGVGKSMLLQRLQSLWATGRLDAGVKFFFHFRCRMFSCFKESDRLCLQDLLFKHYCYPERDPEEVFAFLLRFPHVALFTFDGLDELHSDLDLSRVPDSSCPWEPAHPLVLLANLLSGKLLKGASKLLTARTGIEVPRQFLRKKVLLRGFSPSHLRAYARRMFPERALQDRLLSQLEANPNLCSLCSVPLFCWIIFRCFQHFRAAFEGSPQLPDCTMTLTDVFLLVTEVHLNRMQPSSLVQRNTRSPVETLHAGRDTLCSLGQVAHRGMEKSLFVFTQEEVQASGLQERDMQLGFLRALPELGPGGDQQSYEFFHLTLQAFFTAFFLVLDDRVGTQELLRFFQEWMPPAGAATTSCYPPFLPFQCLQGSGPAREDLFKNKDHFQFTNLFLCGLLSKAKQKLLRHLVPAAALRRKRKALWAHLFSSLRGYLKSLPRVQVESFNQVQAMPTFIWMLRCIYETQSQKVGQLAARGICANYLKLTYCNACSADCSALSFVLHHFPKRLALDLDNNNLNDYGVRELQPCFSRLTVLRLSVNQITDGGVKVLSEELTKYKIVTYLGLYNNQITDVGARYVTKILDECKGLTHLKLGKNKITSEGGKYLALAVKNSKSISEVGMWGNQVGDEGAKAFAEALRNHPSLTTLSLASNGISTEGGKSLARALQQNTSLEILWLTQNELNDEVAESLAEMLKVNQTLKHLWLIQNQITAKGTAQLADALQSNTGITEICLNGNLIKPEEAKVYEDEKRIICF

Tumor necrosis factor = Tumor necrosis factor (Homo sapiens, UniProt P01375); test: TNFa-triggered NF-kB activation inhibitors, SAR follow-up, cell-based, revised (AID 2337); assay type: functional
[6] = target: Nucleotide-binding oligomerization domain-containing protein 2 (Homo sapiens, UniProt Q9HC29); test: PubChem AID 2334; assay type: functional
HEK293 = test: cells; conditions: Homo sapiens;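 note: cells exposed to compound for 14 hours overnight before viability readout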
[7] = target: Alkaline phosphatase, placental type (Homo sapiens, UniProt P05187); test: PLAP enzyme inhibitors, confirmation, biochemical, luminescence (AID 1512); assay type: functional
[8] = target: T4, Tyrosine-protein phosphatase non-receptor type 7 (Homo sapiens, UniProt P35236); test: HePTP (PTPN7) phosphatase inhibitor potency, SAR follow-up, biochemical, set 2 (AID 449736); assay type: functional
T4 sequence (P35236 whole entry): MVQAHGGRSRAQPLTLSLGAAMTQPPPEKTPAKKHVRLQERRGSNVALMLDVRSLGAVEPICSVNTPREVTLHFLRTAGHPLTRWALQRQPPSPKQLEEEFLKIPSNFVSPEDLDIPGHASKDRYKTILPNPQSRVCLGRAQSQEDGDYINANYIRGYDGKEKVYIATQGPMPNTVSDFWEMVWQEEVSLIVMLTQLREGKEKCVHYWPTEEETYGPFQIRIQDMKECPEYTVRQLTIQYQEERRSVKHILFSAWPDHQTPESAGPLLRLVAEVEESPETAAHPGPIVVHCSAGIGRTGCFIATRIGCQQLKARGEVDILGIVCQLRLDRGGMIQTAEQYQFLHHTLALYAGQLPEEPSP

[9] = target: Acyl-homoserine lactone acylase PvdQ (Pseudomonas aeruginosa (strain LESB58), UniProt Q9I194); test: P. aeruginosa PvdQ acylase inhibitors, dose response, biochemical, fluorescence, plate reader and imaging, cherry-picks (AID 493231)
[10] = target: T5, Corticotropin-releasing factor receptor 2/Corticotropin-releasing factor-binding protein (Homo sapiens, UniProt P24387+Q13324); test: activators of CRF receptor 2 with binding protein – uHTS hits, confirmation (AID 602473); assay type: functional; conditions: read-out: EC50_Mean
T5 sequence (Q13324 whole entry): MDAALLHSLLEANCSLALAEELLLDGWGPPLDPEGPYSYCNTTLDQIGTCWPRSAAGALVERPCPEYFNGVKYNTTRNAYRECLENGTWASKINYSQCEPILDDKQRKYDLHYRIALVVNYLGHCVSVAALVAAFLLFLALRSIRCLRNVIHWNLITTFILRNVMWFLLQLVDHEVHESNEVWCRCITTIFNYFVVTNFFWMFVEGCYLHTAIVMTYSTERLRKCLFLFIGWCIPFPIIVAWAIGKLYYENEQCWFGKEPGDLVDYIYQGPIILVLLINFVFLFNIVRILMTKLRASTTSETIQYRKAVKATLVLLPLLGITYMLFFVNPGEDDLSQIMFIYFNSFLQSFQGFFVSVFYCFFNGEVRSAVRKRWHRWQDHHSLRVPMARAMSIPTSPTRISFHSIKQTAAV
T5 sequence (P24387 whole entry): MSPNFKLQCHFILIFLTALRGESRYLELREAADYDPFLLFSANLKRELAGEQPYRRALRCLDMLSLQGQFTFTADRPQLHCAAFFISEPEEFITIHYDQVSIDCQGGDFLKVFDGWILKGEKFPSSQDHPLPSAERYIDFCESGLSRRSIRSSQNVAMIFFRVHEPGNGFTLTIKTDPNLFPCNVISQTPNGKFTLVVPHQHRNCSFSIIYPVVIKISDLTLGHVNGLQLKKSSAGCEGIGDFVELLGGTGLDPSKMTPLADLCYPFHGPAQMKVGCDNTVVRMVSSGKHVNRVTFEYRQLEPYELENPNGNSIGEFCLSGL

[11] = target: T5, Corticotropin-releasing factor receptor 2/Corticotropin-releasing factor-binding protein; test: Dose Response confirmation of uHTS hits for small molecule antagonists of the CRF-binding protein and CRF-R2 receptor complex.; assay type: functional; conditions: read-out: IC50_Mean
SUMO-activating enzyme = SUMO-activating enzyme (Homo sapiens, UniProt Q9UBT2); test: SUMOylation inhibitor hit validation, confirmation, SUMOylation inhibitor project, biochemical, AlphaScreen (AID 2018); assay type: functional
Nonstructural protein 1 = Nonstructural protein 1 (Influenza A virus, UniProt Q194T2); assay type: functional, Influenza A virus (A/California/07/2009(H1N1))
[12] = target: T6, Microphthalmia-associated transcription factor (Homo sapiens, UniProt O75030); test: TRPM1 promoter luciferase signal decrease, dose response, MITF inhibitor project, cell-based, SK-MEL-5, cherry-picked, set 3 (AID 493073); assay type: functional
T6 sequence (O75030 whole entry): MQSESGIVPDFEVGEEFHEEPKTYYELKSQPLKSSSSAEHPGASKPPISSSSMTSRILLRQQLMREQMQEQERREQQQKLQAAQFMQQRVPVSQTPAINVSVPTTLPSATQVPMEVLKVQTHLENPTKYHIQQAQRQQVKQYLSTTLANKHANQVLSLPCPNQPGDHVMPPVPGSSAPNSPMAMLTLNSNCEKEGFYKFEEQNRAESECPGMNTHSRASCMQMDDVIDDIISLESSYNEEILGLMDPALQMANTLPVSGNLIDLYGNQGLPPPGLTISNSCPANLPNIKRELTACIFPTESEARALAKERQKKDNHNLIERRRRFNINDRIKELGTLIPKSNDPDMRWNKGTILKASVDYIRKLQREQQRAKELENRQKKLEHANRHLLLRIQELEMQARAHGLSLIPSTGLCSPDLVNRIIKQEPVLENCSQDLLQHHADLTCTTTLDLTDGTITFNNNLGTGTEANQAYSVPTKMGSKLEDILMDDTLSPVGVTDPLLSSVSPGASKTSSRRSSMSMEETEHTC

Beta-galactosidase = Beta-galactosidase (Escherichia coli, UniProt Q8VNN2); assay type: functional
[13] = target: T7, Kappa-type opioid receptor (Homo sapiens, UniProt P41145); assay type: functional
[14] = target: T7, Kappa-type opioid receptor; assay type: functional; remark: listed apart in the source

Chain of Tumor necrosis factor (P01375 whole entry, the tested form may be a part): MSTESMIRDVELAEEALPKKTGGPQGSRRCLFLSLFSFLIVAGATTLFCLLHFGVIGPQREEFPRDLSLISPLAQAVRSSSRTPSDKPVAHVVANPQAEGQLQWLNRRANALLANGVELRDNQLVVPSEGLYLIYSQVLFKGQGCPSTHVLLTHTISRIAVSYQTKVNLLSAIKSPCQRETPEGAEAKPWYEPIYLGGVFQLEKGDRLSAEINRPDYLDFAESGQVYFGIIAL
Chain of Nucleotide-binding oligomerization domain-containing protein 2 (Q9HC29 whole entry, the tested form may be a part): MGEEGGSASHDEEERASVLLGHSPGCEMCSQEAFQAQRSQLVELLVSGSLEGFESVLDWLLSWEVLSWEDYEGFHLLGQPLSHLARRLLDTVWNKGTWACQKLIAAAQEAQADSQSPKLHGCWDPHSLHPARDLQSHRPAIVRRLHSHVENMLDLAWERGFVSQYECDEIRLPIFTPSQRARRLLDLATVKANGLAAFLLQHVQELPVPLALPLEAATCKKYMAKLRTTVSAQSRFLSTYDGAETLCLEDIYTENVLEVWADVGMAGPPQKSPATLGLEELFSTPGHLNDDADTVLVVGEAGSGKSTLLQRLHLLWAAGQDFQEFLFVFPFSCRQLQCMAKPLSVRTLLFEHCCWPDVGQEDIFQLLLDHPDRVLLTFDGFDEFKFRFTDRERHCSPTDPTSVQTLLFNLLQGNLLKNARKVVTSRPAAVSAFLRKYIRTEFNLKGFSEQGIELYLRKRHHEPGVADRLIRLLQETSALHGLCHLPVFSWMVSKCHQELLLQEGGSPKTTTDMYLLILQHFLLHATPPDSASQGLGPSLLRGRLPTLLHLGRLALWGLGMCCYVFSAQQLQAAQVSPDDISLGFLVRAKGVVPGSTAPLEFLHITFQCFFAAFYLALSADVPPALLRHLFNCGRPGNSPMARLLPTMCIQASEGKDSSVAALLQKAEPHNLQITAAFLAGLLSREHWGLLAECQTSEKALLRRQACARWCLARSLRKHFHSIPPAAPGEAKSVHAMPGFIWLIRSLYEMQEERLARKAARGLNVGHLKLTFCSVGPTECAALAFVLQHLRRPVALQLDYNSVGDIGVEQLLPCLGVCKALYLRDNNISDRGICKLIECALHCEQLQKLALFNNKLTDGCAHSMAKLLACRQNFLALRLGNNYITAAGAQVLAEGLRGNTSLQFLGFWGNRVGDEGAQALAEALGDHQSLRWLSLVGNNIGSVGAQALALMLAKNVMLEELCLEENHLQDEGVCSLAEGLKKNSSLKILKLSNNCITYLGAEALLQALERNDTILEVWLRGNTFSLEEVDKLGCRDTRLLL
T7 sequence (P41145 whole entry): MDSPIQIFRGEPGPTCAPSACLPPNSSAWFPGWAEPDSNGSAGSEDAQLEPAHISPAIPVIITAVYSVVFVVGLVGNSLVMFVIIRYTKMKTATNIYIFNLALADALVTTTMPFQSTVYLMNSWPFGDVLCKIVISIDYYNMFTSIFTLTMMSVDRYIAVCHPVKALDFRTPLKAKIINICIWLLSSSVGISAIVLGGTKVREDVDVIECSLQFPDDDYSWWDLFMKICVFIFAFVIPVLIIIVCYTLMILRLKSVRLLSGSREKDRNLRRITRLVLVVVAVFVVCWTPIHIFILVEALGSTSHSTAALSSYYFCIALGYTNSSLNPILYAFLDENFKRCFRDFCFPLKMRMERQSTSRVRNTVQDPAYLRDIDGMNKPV
T2 sequence (Q00975 whole entry): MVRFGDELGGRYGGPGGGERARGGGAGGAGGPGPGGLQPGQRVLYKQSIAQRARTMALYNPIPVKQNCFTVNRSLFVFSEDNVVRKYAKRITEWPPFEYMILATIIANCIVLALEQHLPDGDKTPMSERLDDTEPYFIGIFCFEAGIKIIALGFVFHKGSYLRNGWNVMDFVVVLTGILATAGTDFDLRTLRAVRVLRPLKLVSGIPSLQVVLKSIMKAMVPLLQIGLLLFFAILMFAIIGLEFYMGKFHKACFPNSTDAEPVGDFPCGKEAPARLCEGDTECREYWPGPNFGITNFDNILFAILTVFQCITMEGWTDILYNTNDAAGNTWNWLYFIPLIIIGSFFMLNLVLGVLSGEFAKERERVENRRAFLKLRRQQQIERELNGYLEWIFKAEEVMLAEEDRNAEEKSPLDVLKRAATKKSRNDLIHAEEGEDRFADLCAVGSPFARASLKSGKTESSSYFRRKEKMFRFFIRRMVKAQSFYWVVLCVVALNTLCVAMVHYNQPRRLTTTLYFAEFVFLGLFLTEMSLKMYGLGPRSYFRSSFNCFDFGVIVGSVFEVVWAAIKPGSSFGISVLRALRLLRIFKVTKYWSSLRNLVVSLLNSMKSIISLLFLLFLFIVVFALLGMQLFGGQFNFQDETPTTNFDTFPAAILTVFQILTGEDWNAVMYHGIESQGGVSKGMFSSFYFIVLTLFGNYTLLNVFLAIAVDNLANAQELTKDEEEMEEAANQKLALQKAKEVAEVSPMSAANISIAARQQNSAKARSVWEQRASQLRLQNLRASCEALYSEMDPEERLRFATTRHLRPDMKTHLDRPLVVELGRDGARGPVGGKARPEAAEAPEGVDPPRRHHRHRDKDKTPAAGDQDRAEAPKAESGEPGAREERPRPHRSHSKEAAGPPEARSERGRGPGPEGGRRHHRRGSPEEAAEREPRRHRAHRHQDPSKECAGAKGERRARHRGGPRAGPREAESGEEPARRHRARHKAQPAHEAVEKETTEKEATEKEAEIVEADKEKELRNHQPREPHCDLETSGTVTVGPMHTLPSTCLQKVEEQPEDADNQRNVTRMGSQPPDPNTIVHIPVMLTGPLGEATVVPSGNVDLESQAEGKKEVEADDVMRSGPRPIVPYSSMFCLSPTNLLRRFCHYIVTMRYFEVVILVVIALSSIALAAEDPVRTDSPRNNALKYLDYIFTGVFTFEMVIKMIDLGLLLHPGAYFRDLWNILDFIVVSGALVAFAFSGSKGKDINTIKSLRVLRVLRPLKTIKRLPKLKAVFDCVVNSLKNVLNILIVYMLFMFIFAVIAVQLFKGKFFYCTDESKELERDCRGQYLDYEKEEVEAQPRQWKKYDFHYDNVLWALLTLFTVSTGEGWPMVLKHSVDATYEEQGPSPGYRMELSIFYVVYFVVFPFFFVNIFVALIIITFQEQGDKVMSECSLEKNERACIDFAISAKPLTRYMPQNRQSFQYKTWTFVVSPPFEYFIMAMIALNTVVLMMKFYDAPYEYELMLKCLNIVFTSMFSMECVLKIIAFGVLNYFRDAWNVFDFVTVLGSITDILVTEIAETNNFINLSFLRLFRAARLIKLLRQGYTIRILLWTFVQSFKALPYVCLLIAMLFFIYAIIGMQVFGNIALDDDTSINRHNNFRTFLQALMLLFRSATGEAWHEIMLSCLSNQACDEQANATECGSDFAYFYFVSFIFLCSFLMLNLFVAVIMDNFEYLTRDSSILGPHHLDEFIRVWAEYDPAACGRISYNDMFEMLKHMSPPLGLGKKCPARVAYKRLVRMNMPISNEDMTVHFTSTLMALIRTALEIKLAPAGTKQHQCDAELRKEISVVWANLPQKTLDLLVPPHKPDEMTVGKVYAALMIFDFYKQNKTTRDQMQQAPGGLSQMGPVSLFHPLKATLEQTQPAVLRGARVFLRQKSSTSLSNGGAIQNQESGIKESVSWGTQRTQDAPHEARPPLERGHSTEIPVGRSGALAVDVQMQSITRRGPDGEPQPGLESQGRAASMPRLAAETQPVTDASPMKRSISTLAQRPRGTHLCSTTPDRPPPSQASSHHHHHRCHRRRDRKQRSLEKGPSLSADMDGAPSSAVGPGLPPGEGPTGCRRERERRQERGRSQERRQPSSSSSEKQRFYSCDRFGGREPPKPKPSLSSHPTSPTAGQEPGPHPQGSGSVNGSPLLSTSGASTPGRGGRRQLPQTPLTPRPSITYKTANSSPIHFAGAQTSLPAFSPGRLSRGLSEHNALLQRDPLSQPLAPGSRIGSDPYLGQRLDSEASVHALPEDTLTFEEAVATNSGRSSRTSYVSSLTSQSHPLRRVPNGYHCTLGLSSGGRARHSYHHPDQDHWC
T2 sequence (Q02410 whole entry): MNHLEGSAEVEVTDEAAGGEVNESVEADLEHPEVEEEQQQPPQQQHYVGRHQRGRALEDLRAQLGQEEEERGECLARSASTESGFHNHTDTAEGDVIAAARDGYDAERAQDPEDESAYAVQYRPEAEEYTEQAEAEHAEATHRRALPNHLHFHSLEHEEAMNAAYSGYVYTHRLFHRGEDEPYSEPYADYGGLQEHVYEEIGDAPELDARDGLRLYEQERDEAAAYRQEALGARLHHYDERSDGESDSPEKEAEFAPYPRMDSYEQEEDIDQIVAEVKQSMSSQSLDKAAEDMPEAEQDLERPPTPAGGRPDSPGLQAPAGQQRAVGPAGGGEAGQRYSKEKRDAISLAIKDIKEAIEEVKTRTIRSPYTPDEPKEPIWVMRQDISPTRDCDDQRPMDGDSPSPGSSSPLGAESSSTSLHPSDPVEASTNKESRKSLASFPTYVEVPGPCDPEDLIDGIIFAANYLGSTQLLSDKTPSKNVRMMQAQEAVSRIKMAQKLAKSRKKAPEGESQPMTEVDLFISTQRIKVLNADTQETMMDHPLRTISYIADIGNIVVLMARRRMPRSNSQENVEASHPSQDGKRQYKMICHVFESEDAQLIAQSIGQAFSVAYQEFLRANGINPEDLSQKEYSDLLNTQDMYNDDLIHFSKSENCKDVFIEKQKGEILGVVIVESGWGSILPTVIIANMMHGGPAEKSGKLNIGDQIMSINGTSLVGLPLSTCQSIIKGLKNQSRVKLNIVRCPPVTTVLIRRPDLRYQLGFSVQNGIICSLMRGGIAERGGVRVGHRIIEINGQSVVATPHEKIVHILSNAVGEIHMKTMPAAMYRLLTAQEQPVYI
Chain of Nonstructural protein 1 (Q194T2 whole entry): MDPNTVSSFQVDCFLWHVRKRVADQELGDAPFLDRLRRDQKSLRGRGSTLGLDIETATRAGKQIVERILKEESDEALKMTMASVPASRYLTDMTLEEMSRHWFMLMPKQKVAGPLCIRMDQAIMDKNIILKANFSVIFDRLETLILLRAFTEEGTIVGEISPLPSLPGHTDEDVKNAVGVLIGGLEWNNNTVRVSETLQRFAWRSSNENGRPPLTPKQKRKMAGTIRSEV

NC(=O)c1nsc(C(=O)N(c2ccccc2F)C(C(=O)NCc2ccccc2)c2ccc(O)cc2)c1N (configuration not stated)
IC50 (H9c2): > 79 µM (inactive)
AC50 (Trypsin): 12 µM (active)
AC50 (CAAX prenyl protease 2): 13.8 µM (active)

NC1=C(c2nc(-c3ccc(Cl)cc3)cs2)C(=O)CN1NC(=O)c1ccc(O)cc1
IC50 [1]: > 50 µM (inactive)
EC50 [2]: 9.72 µM (active)
IC50 [3]: 7.51 µM (active)
EC50 [4]: > 120 µM (not active)
EC50 (H4): 94.6 µM (active)

COc1ccc(C(=O)Nc2nc3ccccc3n2Cc2ccc(Cl)cc2)cc1
IC50 [5]: > 20 µM (inactive)
IC50 (Tumor necrosis factor): > 20 µM (inactive)
IC50 [6]: > 20 µM (inactive)
IC50 (HEK293): > 20 µM (inactive)

NC1(C(Cl)(Cl)Cl)Oc2cc(Cl)c(Cl)cc2O1
IC50 [7]: > 100 µM (inactive)

NS(=O)(=O)c1ccc(NC(=S)NC2CCN(Cc3ccccc3)CC2)cc1
IC50 [8]: > 100 µM (inactive)

CCOC1=CC(=O)OC(c2ccccc2)C1 (configuration not stated)
AC50 [9]: 3.54 µM (active)

Nc1nc2ccccc2n1C(=O)Cc1ccccc1
IC50 [5]: > 20 µM (inactive)
IC50 (Tumor necrosis factor): > 20 µM (inactive)
IC50 [6]: > 20 µM (inactive)
IC50 (HEK293): > 20 µM (inactive)

O=C(CC1SC(N/N=C/C=C/c2ccccc2)=NC1=O)Nc1ccc(Cl)c(Cl)c1 (configuration not stated)
EC50 [10]: > 53 µM (inactive)
IC50 [11]: > 47.1 µM (inactive)
IC50 (SUMO-activating enzyme): 34.6 µM (active)

C/C(=N\NC(=O)C1COc2ccccc2O1)c1ccccn1 (configuration not stated)
IC50 (Nonstructural protein 1): 5.62 µM (active)
AC50 [12]: 4.49 µM (active)
EC50 (Beta-galactosidase): > 31.5 µM (inactive)
IC50 [13]: 6.93 µM (active)
IC50 [14]: > 32 µM
